Experiments:
SETVI [1] = test: Post-emergence herbicidal action against SETVI; assay type: in vivo, Setaria viridis
Outline: (§1)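 Percent herbicidal action is rated by eye about 3 weeks after treatment against untreated controls, where 100% means dead plants and 0% means like controls. Plants in sandy loam are sprayed on green parts at the one-leaf stage with aqueous WP or EC preparations at 600 to 800 l/ha plus 0.2% wetting agent.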

AMARE [2] = test: Post-emergence herbicidal action against AMARE; assay type: in vivo, Amaranthus retroflexus; details: 20 g/ha, visual assessment about 3 weeks after treatment, 100% = plants have died, 0% = like control plants
Outline: as §1

AVEFA [3] = test: Post-emergence herbicidal action against AVEFA; assay type: in vivo, Avena fatua; details: visual assessment about 3 weeks after treatment, 100% = plants have died, 0% = like control plants
Outline: as §1

VERPE [4] = test: Pre-emergence herbicidal action against VERPE; assay type: in vivo, Veronica persica
Outline: (§2)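 Seeds sown in sandy loam, soil-covered; compound sprayed on soil surface pre-emergence. Application: WP/EC, 600–800 l/ha, 0.2% wetting agent. Readout: visual % damage at 3 weeks.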

ABUTH [5] = test: Post-emergence herbicidal action against ABUTH; assay type: in vivo, Abutilon theophrasti; details: visual assessment about 3 weeks after treatment vs untreated controls
Outline: as §1

DIGSA [6] = test: Post-emergence herbicidal action against DIGSA; assay type: in vivo, Digitaria sanguinalis; details: for Post-emergence action against DIGSA: 20 g/ha; for Post-emergence action against DIGSA in %: 5 g/ha
Outline: as §1

ALOMY [7] = test: Pre-emergence herbicidal action against ALOMY; assay type: in vivo, Alopecurus myosuroides; details: for Pre-emergence action against ALOMY (herbicidal activity): 80 g/ha, scored visually after 3 weeks vs untreated controls (100% = plants have died, 0% = like control plants)
Outline: as §2

VIOTR [8] = test: Post-emergence herbicidal action against VIOTR; assay type: in vivo, Viola tricolor
Outline: as §1

AVEFA [9] = test: Pre-emergence herbicidal action against AVEFA; assay type: in vivo, Avena fatua; details: for Pre-emergence action against AVEFA in %: 80 g/ha
Outline: as §2

ABUTH [10] = test: Pre-emergence herbicidal action against ABUTH; assay type: in vivo, Abutilon theophrasti; details: for Pre-emergence action against ABUTH (herbicidal activity): 80 g/ha, scored visually after 3 weeks vs untreated controls (100% = plants have died, 0% = like control plants); for Pre-emergence action against ABUTH (herbicidal activity in percent): dosage 20 g/ha, scored visually after 3 weeks vs untreated controls, 100% = plants have died, 0% = like control plants
Outline: as §2

SETVI [11] = test: Pre-emergence herbicidal action against SETVI; assay type: in vivo, Setaria viridis
Outline: as §2

VERPE [12] = test: Post-emergence herbicidal action against VERPE; assay type: in vivo, Veronica persica; details: 20 g/ha
Outline: as §1

ECHCG [13] = test: Post-emergence herbicidal action against ECHCG; assay type: in vivo, Echinochloa crus-galli
Outline: as §1

MATIN [14] = test: Pre-emergence herbicidal action against MATIN; assay type: in vivo, Matricaria inodora
Outline: as §2

AMARE [15] = test: Pre-emergence herbicidal action against AMARE; assay type: in vivo, Amaranthus retroflexus
Outline: as §2

ECHCG [16] = test: Pre-emergence herbicidal action against ECHCG; assay type: in vivo, Echinochloa crus-galli
Outline: as §2

PHBPU [17] = test: Post-emergence herbicidal action against PHBPU; assay type: in vivo, Pharbitis purpurea
Outline: as §1

MATIN [18] = test: Post-emergence herbicidal action against MATIN; assay type: in vivo, Matricaria inodora
Outline: as §1

VIOTR [19] = test: Pre-emergence herbicidal action against VIOTR; assay type: in vivo, Viola tricolor
Outline: as §2

ALOMY [20] = test: Post-emergence herbicidal action against ALOMY; assay type: in vivo, Alopecurus myosuroides; details: visual assessment about 3 weeks after treatment vs untreated controls
Outline: as §1

PHBPU [21] = test: Pre-emergence herbicidal action against PHBPU; assay type: in vivo, Pharbitis purpurea
Outline: as §2

POLCO = test: Pre-emergence herbicidal action against POLCO; assay type: in vivo, Polygonum convolvulus; details: dosage 80 g/ha
Outline: as §2

DIGSA [22] = test: Pre-emergence herbicidal action against DIGSA; assay type: in vivo, Digitaria sanguinalis
Outline: as §2

[23] = 20 g/ha, scored visually after 3 weeks vs untreated controls, 100% = plants have died, 0% = like control plants
[24] = 80 g/ha, scored visually after 3 weeks vs untreated controls (100% = plants have died, 0% = like control plants)
[25] = 20 g/ha, scored visually after 3 weeks, 100% = plants have died, 0% = like control plants

| SMILES | Post-emergence action against SETVI in % (SETVI [1]; dosage 20 g/ha) [%] | Post-emergence action at 20 g/ha against AMARE in % (AMARE [2]) [%] | Post-emergence action at 20 g/ha against AVEFA in % (AVEFA [3]) [%] | Pre-emergence action against VERPE in % (VERPE [4]; dosage 80 g/ha) [%] | Post-emergence action against ABUTH in % (ABUTH [5]; dosage 20 g/ha) [%] | Post-emergence action against DIGSA (DIGSA [6]) [%] | Pre-emergence action against ALOMY (herbicidal activity) (ALOMY [7]) [%] | Pre-emergence action against AVEFA in % (AVEFA [9]) [%] | Pre-emergence action against ABUTH (herbicidal activity) (ABUTH [10]) [%] | Pre-emergence action against ABUTH (herbicidal activity in percent) (ABUTH [10]) [%] | Pre-emergence action against SETVI in % (SETVI [11]; dosage 80 g/ha) [%] | Post-emergence action against VERPE in % (VERPE [12]) [%] | Post-emergence action against ECHCG in % (ECHCG [13]; dosage 20 g/ha) [%] | Pre-emergence action against MATIN in % (MATIN [14]; dosage 20 g/ha) [%] | Pre-emergence action against MATIN in % (MATIN [14]; dosage 80 g/ha) [%] | Pre-emergence action against AMARE in % (AMARE [15]; [23]) [%] | Pre-emergence action against AMARE in % (AMARE [15]; [24]) [%] | Pre-emergence action against ECHCG in % (ECHCG [16]; 80 g/ha) [%] | Pre-emergence action against VIOTR in % (VIOTR [19]; dosage 20 g/ha) [%] | Pre-emergence action against VIOTR in % (VIOTR [19]; dosage 80 g/ha) [%] | further results |
| --- | --- | --- | --- | --- | --- | --- | --- | --- | --- | --- | --- | --- | --- | --- | --- | --- | --- | --- | --- | --- | --- |
| CCNC(=O)c1c(C(F)F)ccc(C(=O)Nc2nnnn2CC)c1Br [Example 2-226] | 100 | 100 | 80 | 100 | 90 | 80 | 90 | 100 | 80 | 80 | 100 | 90 | 90 | 90 | 100 | 100 | 100 | 100 | 100 | 100 | Post-emergence action against SETVI in % (SETVI [1]; dosage 5 g/ha): 100%; Post-emergence action against VIOTR in % (VIOTR [8]; 5 g/ha): 90%; Post-emergence action against VIOTR in % (VIOTR [8]; 20 g/ha): 100%; Pre-emergence action against SETVI in % (SETVI [11]; dosage 20 g/ha): 80%; Pre-emergence action against ECHCG in % (ECHCG [16]; 20 g/ha): 100%; Post-emergence action against PHBPU in % (PHBPU [17]; dosage 20 g/ha): 80%; Post-emergence action against MATIN in % (MATIN [18]; dosage 20 g/ha): 80%; Post-emergence action against ALOMY in % (ALOMY [20]; dosage 20 g/ha): 90%; Pre-emergence action against PHBPU in % (PHBPU [21]; dosage 80 g/ha): 100%; Pre-emergence action against POLCO in % (POLCO): 80% |
| CCn1nnnc1NC(=O)c1ccc(C(F)(F)F)c(C(=O)NCC(F)F)c1C1CC1 [Example 2-291] | 90 | 90 | 90 | 90 | 80 | 100 | 80 | 80 | 100 | 100 | 100 | 80 | 80 | 90 | 100 | 100 | 100 | 90 | 100 | 100 | Pre-emergence action against DIGSA in % (DIGSA [22]; dosage 20 g/ha): 100%; Pre-emergence action against DIGSA in % (DIGSA [22]; dosage 80 g/ha): 100%; Post-emergence action against ABUTH in % (ABUTH [5]; dosage 5 g/ha): 80%; Post-emergence action against DIGSA in % (DIGSA [6]): 90%; Post-emergence action against VIOTR in % (VIOTR [8]; 5 g/ha): 80%; Post-emergence action against VIOTR in % (VIOTR [8]; 20 g/ha): 90%; Pre-emergence action against AVEFA (AVEFA [9]; [25]): 80%; Post-emergence action against ECHCG in % (ECHCG [13]; dosage 5 g/ha): 80%; Post-emergence action against PHBPU in % (PHBPU [17]; dosage 5 g/ha): 80%; Post-emergence action against PHBPU in % (PHBPU [17]; dosage 20 g/ha): 90%; Post-emergence action against MATIN in % (MATIN [18]; dosage 5 g/ha): 80%; Post-emergence action against MATIN in % (MATIN [18]; dosage 20 g/ha): 90%; Post-emergence action against ALOMY in % (ALOMY [20]; dosage 5 g/ha): 80%; Post-emergence action against ALOMY in % (ALOMY [20]; dosage 20 g/ha): 80%; Pre-emergence action against PHBPU in % (PHBPU [21]; dosage 20 g/ha): 80%; Pre-emergence action against PHBPU in % (PHBPU [21]; dosage 80 g/ha): 90%; Pre-emergence action against POLCO in % (POLCO): 80% |
| CCn1nnnc1NC(=O)c1ccc(C(F)(F)F)c(C(=O)NC(C)C2CC2)c1C1CC1 (centres unmarked) [Example 2-292] | 80 | 90 | 80 | 100 | 80 | 90 | 90 | 90 | 100 | 100 | 100 | 80 | 80 | 90 | 100 | 100 | 100 | 100 | 100 | 100 | Pre-emergence action against DIGSA in % (DIGSA [22]; dosage 20 g/ha): 100%; Pre-emergence action against DIGSA in % (DIGSA [22]; dosage 80 g/ha): 100%; Pre-emergence action against VERPE in % (VERPE [4]; dosage 20 g/ha): 90%; Post-emergence action against DIGSA in % (DIGSA [6]): 90%; Post-emergence action against VIOTR in % (VIOTR [8]; 20 g/ha): 80%; Post-emergence action against ECHCG in % (ECHCG [13]; dosage 5 g/ha): 80%; Post-emergence action against MATIN in % (MATIN [18]; dosage 5 g/ha): 80%; Post-emergence action against MATIN in % (MATIN [18]; dosage 20 g/ha): 90%; Post-emergence action against ALOMY in % (ALOMY [20]; dosage 20 g/ha): 80%; Pre-emergence action against PHBPU in % (PHBPU [21]; dosage 20 g/ha): 80%; Pre-emergence action against PHBPU in % (PHBPU [21]; dosage 80 g/ha): 90%; Pre-emergence action against POLCO in % (POLCO): 100% |
| CCn1nnnc1NC(=O)c1ccc(C(F)(F)F)c(C(=O)NCCOC)c1C [Example 2-34] | 90 | 100 | 80 | 90 | 90 | 100 | 90 | 90 | 100 | 80 | 100 | 80 | 100 | 90 | 100 | 90 | 100 | 90 | 100 | 100 | Post-emergence action against SETVI in % (SETVI [1]; dosage 5 g/ha): 80%; Pre-emergence action against DIGSA in % (DIGSA [22]; dosage 20 g/ha): 100%; Pre-emergence action against DIGSA in % (DIGSA [22]; dosage 80 g/ha): 100%; Post-emergence action at 5 g/ha against AVEFA in % (AVEFA [3]; 5 g/ha): 80%; Pre-emergence action against VERPE in % (VERPE [4]; dosage 20 g/ha): 90%; Post-emergence action against ABUTH in % (ABUTH [5]; dosage 5 g/ha): 90%; Post-emergence action against DIGSA in % (DIGSA [6]): 80%; Pre-emergence action against ALOMY (ALOMY [7]; [25]): 80%; Pre-emergence action against SETVI in % (SETVI [11]; dosage 20 g/ha): 100%; Post-emergence action against ECHCG in % (ECHCG [13]; dosage 5 g/ha): 90%; Post-emergence action against PHBPU in % (PHBPU [17]; dosage 5 g/ha): 90%; Post-emergence action against PHBPU in % (PHBPU [17]; dosage 20 g/ha): 100%; Post-emergence action against ALOMY in % (ALOMY [20]; dosage 20 g/ha): 100%; Pre-emergence action against PHBPU in % (PHBPU [21]; dosage 80 g/ha): 80%; Pre-emergence action against POLCO in % (POLCO): 90% |

Reference: patent US12655116B2, “Substituted isophthalic acid diamides” (Bayer Aktiengesellschaft, priority 2020, dated 2026)
